Assay results from publication doi:10.1101/2022.03.17.484770v1 (biorxiv, 2022).

Molecular target: T1, IRI1/LHT1 (Arabidopsis thaliana, UniProt Q9FKS8)
T1 sequence (Q9FKS8 1-446): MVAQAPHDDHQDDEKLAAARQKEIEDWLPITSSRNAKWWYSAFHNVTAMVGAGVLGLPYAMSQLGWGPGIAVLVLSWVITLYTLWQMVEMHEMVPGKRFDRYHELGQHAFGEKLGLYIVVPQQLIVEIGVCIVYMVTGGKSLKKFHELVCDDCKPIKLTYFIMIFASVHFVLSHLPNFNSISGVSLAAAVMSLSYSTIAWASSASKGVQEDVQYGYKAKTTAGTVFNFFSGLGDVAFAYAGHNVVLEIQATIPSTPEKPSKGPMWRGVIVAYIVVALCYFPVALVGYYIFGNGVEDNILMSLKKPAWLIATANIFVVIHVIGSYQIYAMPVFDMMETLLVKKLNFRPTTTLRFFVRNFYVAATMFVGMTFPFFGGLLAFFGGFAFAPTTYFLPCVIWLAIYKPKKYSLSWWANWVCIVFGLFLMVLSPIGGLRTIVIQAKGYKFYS
Test: inhibition of […]-L-Ala uptake in yeast
Assay type: cell-based

Structure (SMILES) | Ki [µM]
CC(N)CC(=O)O (racemic) [BABA, β-amino butyric acid] | 24.7
N[C@@H](CO)CC(=O)O [RBH, R-β-homoserine] | 39.2
